# Results: patent US11219627B2, “Clearance of amyloid beta” (priority 2014, dated 2022)
# Read-outs that look alike come from different tables or passages of the source.
# Legend:
# [1] = tested on: nicotinic receptors; conditions: cited from earlier work
# [2] = tested on: MCI patients; conditions: cited from earlier work
# [3] = tested on: mild-to-moderate AD patients; conditions: cited from earlier work
# [4] = molecular target: T1, α7 nicotinic receptors (Rattus norvegicus, UniProt Q05941); conditions: 1 μM; 1.5 mM choline; cited from earlier work
# T1 construct: Primary cultured rat neurons can be depolarized by the application of 1.5 mM choline; endogenous in cells; host or cells: primary cultured rat neurons
# [5] = tested on: mild-to-moderate AD patients; assay: two-year randomized trial of galantamine and placebo; format: in vivo, human; conditions: 24 months
# [6] = tested on: Mice with lesions of the nucleus basalis magnocellularis (nBm); conditions: cited from earlier work
# [7] = tested on: serum tumor necrosis factor (TNF); conditions: cited from earlier work
# [8] = tested on: APdE9 mice; conditions: cited from earlier work; for insoluble Aβ in mouse brains: 2 months
# [9] = human patients; cited from earlier work
# [10] = molecular target: Aβ1-40 (Homo sapiens, UniProt P05067); conditions: 500 nM; 50 μM Aβ1-40; cited from earlier work
# [11] = tested on: mice transgenic for a single, different Swedish APP mutation; conditions: ten days at 2 mg/kg/day; cited from earlier work
# [12] = tested on: CSF Aβ; conditions: in vivo; cited from earlier work
# [13] = tested on: β-secretase; conditions: 300 nM; cited from earlier work
# [14] = tested on: Primary rat cultured cortical neurons; conditions: cited from earlier work
# [15] = tested on: adrenal chromaffin and human neuroblastoma cells; conditions: 100 to 300 nM; Aβ1-40 10 μM; cited from earlier work
# [16] = tested on: neuroblastoma cells; conditions: 300 nM; cited from earlier work
# [17] = tested on: mice transgenic for an anti-NGF (nerve growth factor) antibody; conditions: 3.5 mg/kg/day, cited from earlier work
# [18] = tested on: CSF Aβ42; conditions: single-dose study, dose-dependent; cited from earlier work
# [19] = tested on: mild to moderate AD; conditions: cited from earlier work; for reduction in loss on the ADAS-cog: mild patients
# [20] = tested on: patients with Alzheimer's disease; conditions: cited from earlier work
# [21] = tested on: patients with Alzheimer's disease; assay: combined solanezumab phase III studies by standard of care subgroup; format: in vivo, human
# Source text: The notion that the Alzheimer brain, and the brain which is developing, but has not yet reached the stage of classical Alzheimer's disease with dementia is impaired by both excess Aβ in the region of plaques, and subnormal Aβ concentrations in the ISF bathing healthy tissue away from plaques, has important treatment implications. The clinical outcome measures used to evaluate interventions designed to alter the course of AD depend on the function of intact, healthy synapses. Anti-amyloid agents would not be expected to target plaques and spare healthy tissue, but rather to further decrease ISF Aβ, which is already reduced to about half of normal in patients with AD or classical MCI. […] (J Alz Dis 2013; 33, S111-S120) 3D6, the […] of bapineuzemab, impaired neuronal viability, as have large doses of γ- and β-secretase inhibitors. […] The combined solanezumab phase III studies have been analyzed for solanezumab's performance in patients with and without cholinesterase inhibitor and memantine treatments (called standard of care—SOC). […] ChEls might improve the function of the normal cells, allowing the antibody to show a net benefit because of its binding of Aβ where it is toxic.
# Sequence of Aβ1-40 (P05067 672-711 limits assumed): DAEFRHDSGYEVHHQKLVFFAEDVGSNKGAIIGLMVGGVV
# T1 sequence (Q05941 23-502): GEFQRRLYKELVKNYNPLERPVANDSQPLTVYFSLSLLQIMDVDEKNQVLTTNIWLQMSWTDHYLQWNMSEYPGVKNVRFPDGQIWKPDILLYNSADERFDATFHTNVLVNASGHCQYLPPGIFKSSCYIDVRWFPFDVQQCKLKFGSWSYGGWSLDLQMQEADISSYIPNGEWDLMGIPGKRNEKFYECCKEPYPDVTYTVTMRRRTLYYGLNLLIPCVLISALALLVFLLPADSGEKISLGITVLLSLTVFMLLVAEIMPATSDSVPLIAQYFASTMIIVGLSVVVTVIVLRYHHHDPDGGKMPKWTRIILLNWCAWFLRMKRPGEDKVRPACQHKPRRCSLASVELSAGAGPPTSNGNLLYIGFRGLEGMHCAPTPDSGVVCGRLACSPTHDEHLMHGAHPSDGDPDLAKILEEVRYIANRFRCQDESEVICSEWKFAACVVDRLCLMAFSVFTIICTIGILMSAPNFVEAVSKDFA
compound,measurement,setting,value
CC12CC3CC(C)(C1)CC(N)(C3)C2 [Memantine],blockade of nicotinic receptors,[1],potent blocker of nicotinic receptors
"COc1ccc2c3c1O[C@H]1C[C@@H](O)C=C[C@@]31CCN(C)C2 [galantamine, (4aS,6R,8aS)-5,6,9,10,11,12-hexahydro-3-methoxy-11-methyl-4aH-[1]benzofuro[3a,3,2-ef][2]benzazepin-6-ol]",deaths,"[2]; 24-month study period, all patients entered",34
same,reduction of global atrophy (serial MRIs) versus placebo,[2]; subpopulation of two-year MCI study,33%
same,deaths,[2]; within 30 days of stopping galantamine,14
same,MMSE change,[3]; 6 months,0.15
same,MMSE difference versus placebo,[3]; 6 months,0.43
same,Disability Assessment in Dementia change,[3]; 12 months,−4.55
same,Disability Assessment in Dementia difference versus placebo,[3]; 12 months,1.95
same,MMSE deterioration,"[3]; 24 months, patients receiving memantine removed",1.12 points
same,Disability Assessment in Dementia change,[3]; 24 months,−8.16
same,Disability Assessment in Dementia difference versus placebo,[3]; 24 months,2.65
same,MMSE change,[3]; 24 months,−1.41
same,MMSE difference versus placebo,[3]; 24 months,0.73
same,mortality less than in placebo patients,[3]; in vivo,42%
same,enhancement of the depolarization caused by choline,[4],20.6±4.2%
same,Disability Assessment in Dementia percent difference versus placebo,[5],24%
same,MMSE percent difference versus placebo,[5],34%
same,reduction of MMSE deterioration versus placebo,[5]; patients receiving memantine removed,48%
same,additional time remaining in the lighted compartment versus saline,"[6]; given during training, optimal performance",about 125 seconds
same,best dose for memory enhancement,[6]; passive avoidance,3 mg/kg
same,serum tumor necrosis factor (TNF),"[7]; 1 mg/kg, administered prior to endotoxin",significantly reduces serum tumor necrosis factor (TNF)
same,dose at which survival is improved significantly,[7]; endotoxin,4 mg/kg
same,insoluble Aβ in mouse brains,[8]; 1 mg/kg/day,significantly reduced insoluble (fibrillar) Aβ1-40
same,insoluble Aβ in mouse brains,[8]; 5 mg/kg/day,reduced both Aβ1-40 and Aβ1-42
same,soluble Aβ species,[8]; 1 or 5 mg/kg/day,Neither dose significantly affected soluble Aβ species
same,plasma half-life,[9],about 7 hours
same,aggregation of Aβ1-40,[10],reduce aggregation
same,insoluble or soluble Aβ species,[11],did not reduce insoluble or soluble Aβ species
same,synaptophysin levels,[11],significantly raise synaptophysin levels
same,effect on CSF Aβ,[12],does not lower CSF Aβ
same,activity of β-secretase,[13],decreased
same,protection of neurons against Aβ plus glutamate,[14]; 0.1 μM,intermediate effect which is not statistically significant
same,protection of neurons against Aβ plus glutamate,[14]; 1.0 μM,protects neurons against Aβ plus glutamate
same,Aβ1-40-induced apoptosis,[15],reduced Aβ1-40-induced apoptosis
same,release of Aβ1-40 and Aβ1-42,[16],decreased
same,intracellular Aβ deposits,[17]; after 15 days,decreased intracellular Aβ deposits
same,ChAT activity,[17],restored ChAT activity
Solanezumab: antibody directed at the central portion of Aβ,rise in CSF Aβ42,[18],up to 35%
same,reduction of functional decline (ADCS-ADL),[19]; Expedition II,19%
same,reduction in loss on the ADAS-cog,[19]; Expedition I,42%
same,reduction in loss on the ADAS-cog,[19]; Expedition II,20%
same,decrease of activities of daily living loss,[19]; mild subgroups combined,17%
same,slowing of cognitive loss,[19]; mild subgroups combined,34%
same,LS Mean Change (SE) from Baseline to Week 80 in ADAS-Cog14 Scores,[20]; AChEI + Memantine,9.8 (0.8)
same,LS Mean Change (SE) from Baseline to Week 80 in ADAS-Cog14 Scores,[20]; AChEI only,6.8 (0.5)
same,LS Mean Change (SE) from Baseline to Week 80 in ADAS-Cog14 Scores,[20]; Memantine only,11.2 (1.9)
same,LS Mean Change (SE) from Baseline to Week 80 in ADAS-Cog14 Scores,[20]; No SOC,6.5 (1.3)
same,benefit on the ADAS-cog versus placebo,"[21]; cholinesterase inhibitors, without memantine",2.1 points
same,excess cognitive deterioration on the ADAS-cog versus placebo,[21]; patients not receiving cholinesterase inhibitors,3.6 points
same,excess cognitive deterioration on the ADAS-cog versus placebo,[21]; patients on memantine only,4.1 points
